One test relates to HeLa cells. In words: sulforhodamine B (SRB) antiproliferative assay. To be noted: 48 h; mean ± SEM; read-out: GI50, concentration that causes a 50% decrease in proliferation, HeLa. It counts as cell-based, human. The text has this:
(§1) HCC1806 (CRL-2335) and HCC1937 (CRL-2336) human triple-negative breast cancer cells, HeLa (CCL-2) cervical cancer cells and SK-OV-3 (HTB-77) ovarian cancer cells were obtained from ATCC (Manassas, Va.) and validated by STR profiling (Genetica). SK-OV-3 cells stably overexpressing Pgp by adenoviral-mediated expression of MDR1 were obtained from Dr. Susan Kane and subcloned by limiting dilution to isolate the single-cell clones utilized in these studies as SK-OV-3-MDR-1-6/6 (Risinger, A. L. et al. (2008) Cancer Res. 68, 8881-8888). A single-cell clone from transfection of HeLa cells with βIII-tubulin, designated wild type βIII, was constructed and obtained from Dr. Richard Luduena (Risinger, A. L. et al. (2008) Cancer Res. 68, 8881-8888). HCC1806 and HCC1937 cells were cultured in RPMI 1640 media (Corning) with 10% FBS (Cellgro) and 50 μg/mL gentamicin (Gibco). HeLa, […] expressing HeLa, SK-OV-3 and SK-OV-3/MDR-1-6/6 cells were grown in BME media with Earle's salts (Gibco) with 10% FBS, 1× final 1% GlutaMax™ Supplement (Gibco), and […] gentamicin. The use of HeLa cells allows for the direct comparison of the in vitro potency as compared to other compounds of this class, which have been predominantly reported in this line and compound potencies are consistent among three additional cancer cell lines. HeLa cells were also used for ectopic expression of tubulin mutants due to the high degree of transfectability of this cell line. Cells were tested for mycoplasma contamination using the Mycoplasma Detection Kit-Quick Test (Cat: B39032, Lot: JW004).
(§2) The sulforhodamine B (SRB) assay was utilized to examine the antiproliferative and cytotoxic effects of the compounds (Skehan, P. et al. (1990) J. Natl. Cancer Inst. 82, 1107-1112; Vichai and Kirtikara (2006) Nat. Protoc. 1, 1112-1116). Approximately 2,000 cells per well (for SK-OV-3, HeLa and βIII-tubulin expressing HeLa) or 4,000 cells per well (for HCC1806 and HCC1937) were seeded in 96-well plates. For each biological replicate, cells were treated in triplicate with each concentration of compound or vehicle control for 48 h in a final volume of 200 μL. The plates were fixed with 10% trichloroacetic acid for protein precipitation of adherent cells and then washed with distilled water. 100 μL of SRB dye, which binds protein stoichiometrically, was added and then unbound dye removed with 1% acetic acid followed by the addition of 200 μL 10 mM Tris to solubilize the dye, which was quantified by absorbance at 560 nm. The percent growth of treated cells relative to the density at the time of drug addiction was calculated as compared to vehicle treated cells.
In general terms: In SRB staining, fixed cells bind dye roughly in proportion to their protein.

In another test the test system is SK-OV-3 cells. The experiment in a line: sulforhodamine B (SRB) antiproliferative assay. It counts as cell-based, human. To be noted: 48 h; mean ± SEM; read-out: GI50, concentration that causes a 50% decrease in proliferation, SK-OV-3.
Source text: as §1, §2

For test [1], the target named is T1, purified porcine brain tubulin (Sus scrofa, UniProt P02554).
T1 construct: purified porcine brain tubulin (Cytoskeleton); purchased Cytoskeleton; host or cells: porcine brain
T1 sequence (P02554 whole entry): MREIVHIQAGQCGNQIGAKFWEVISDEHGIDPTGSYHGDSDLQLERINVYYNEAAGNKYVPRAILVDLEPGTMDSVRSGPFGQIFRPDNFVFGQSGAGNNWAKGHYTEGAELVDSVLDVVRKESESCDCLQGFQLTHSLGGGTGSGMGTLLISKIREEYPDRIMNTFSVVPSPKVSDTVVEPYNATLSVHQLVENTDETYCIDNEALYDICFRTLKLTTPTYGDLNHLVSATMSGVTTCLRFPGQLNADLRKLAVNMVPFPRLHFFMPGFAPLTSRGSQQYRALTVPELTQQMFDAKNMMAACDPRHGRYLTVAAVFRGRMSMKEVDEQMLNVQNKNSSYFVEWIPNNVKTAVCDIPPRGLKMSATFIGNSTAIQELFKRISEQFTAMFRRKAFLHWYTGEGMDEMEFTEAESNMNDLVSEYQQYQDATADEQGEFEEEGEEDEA
T1 sequence (P02550 whole entry partner): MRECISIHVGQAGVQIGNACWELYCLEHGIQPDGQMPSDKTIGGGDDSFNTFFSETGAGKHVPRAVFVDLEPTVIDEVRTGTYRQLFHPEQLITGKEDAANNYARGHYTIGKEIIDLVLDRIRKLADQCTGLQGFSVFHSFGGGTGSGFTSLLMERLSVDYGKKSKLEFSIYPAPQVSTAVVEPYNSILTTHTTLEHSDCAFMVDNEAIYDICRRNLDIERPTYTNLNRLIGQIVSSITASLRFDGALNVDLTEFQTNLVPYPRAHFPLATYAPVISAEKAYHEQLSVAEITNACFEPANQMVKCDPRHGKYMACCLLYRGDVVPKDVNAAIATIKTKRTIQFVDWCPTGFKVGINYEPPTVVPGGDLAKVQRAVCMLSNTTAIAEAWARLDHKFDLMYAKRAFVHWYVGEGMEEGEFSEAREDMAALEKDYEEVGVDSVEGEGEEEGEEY
In words: biochemical tubulin polymerization assay. To be noted: tubulin 20 μM. The method, then:
Exemplary results of the […] tubulin polymerization assay are illustrated in FIG. 3, FIG. 4B, and FIG. 5B and were obtained as described in Risinger et al., Cancer Research, 2013.
Biochemical tubulin polymerization assays were performed using purified porcine brain tubulin (Cytoskeleton). In individual wells of a 96-well plate, 1 μL of each 100× drug stock was incubated with 20 μM porcine brain tubulin in GPEM glycerol buffer (1 mM GTP, 10% glycerol, 80 mM PIPES pH 6.9, 2 mM MgCl2 and 0.5 mM EGTA) in a final volume of 100 μL. Pure porcine tubulin was prepared on ice at 4° C. to inhibit tubulin polymerization until the assay was initiated, while the plate reader was pre-warmed to 37° C. Tubulin polymerization was measured every minute for an hour by light scattering at 340 nm in a Spectramax plate reader using SoftMax software (Molecular Devices). Light scattering was normalized to the initial measurement for each well. For the probe-tubulin binding assay, samples were prepared on ice in tubes instead of a 96 well plate, and moved to a 37° C. heat block to initiate binding and polymerization. The time zero (0′) sample consisted of tubulin polymerization buffer prior to addition of taccalonolide probe. […]

On to `CC(=O)O[C@H]1[C@H]2[C@H]([C@@H]3[C@@H](O)[C@@H]4[C@H]([C@H](C)[C@@H]5O[C@@]56OC(=O)[C@@](C)(O)[C@]46C)[C@@]3(C)[C@H]1OC(C)=O)[C@@H](O)C(=O)[C@H]1C[C@@H]3O[C@@H]3[C@H](OC(C)=O)[C@]21C` [compound 2, taccalonolide AJ, reference compound], for which the GI50 was 8.5 nM in the test with HeLa cells and 6.2 nM in the test with SK-OV-3 cells. Moreover, in test [1], the “concentration range promoting polymerization of purified tubulin” value fell in the range of 5 to 20 µM.

These data come from patent publication US20230061432A1, “NEW TECHNOLOGY TO CONJUGATE THE TACCALONOLIDE MICROTUBULE STABILIZERS WITH LINKERS/PAYLOADS” (priority 2019, published 2023).
